Experimental data from paper PMC3914206.

Experiments:
Assay type in all cases: binding
Settings in all cases: Compound Concentration 10 µM
[1] = biological target: T1, panel of 442 kinases (Homo sapiens, UniProt Q8WTQ7)
T1 construct: purchased KINOMEscan
T1 sequence (Q8WTQ7 1-553): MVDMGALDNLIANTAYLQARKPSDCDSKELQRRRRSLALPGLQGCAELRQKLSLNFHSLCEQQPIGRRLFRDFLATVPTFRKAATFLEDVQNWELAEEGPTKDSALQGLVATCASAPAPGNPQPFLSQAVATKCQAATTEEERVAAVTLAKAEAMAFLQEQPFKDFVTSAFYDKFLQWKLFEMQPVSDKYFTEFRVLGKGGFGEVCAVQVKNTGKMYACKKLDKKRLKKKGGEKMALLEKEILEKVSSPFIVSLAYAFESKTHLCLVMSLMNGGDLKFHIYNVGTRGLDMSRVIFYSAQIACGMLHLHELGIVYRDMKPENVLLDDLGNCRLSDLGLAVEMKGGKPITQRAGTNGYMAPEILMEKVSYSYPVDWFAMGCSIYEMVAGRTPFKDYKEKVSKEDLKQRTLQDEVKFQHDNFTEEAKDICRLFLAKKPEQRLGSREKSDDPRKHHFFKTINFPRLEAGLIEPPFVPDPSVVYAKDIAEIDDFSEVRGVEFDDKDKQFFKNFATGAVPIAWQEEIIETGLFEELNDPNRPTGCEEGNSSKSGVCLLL
Source text: (§1) We assessed the selectivity of members of this scaffold using the KINOMEscan methodology across a near comprehensive panel of 442 kinases [[18,27]].

[2] = biological target: T2, panel of 442 kinases (Homo sapiens, UniProt P53355)
T2 construct: purchased KINOMEscan
Source text: as §1

[3] = biological target: T3, panel of 442 kinases (Homo sapiens, UniProt P49674)
T3 construct: purchased KINOMEscan
Source text: as §1

T2 sequence (P53355 whole entry): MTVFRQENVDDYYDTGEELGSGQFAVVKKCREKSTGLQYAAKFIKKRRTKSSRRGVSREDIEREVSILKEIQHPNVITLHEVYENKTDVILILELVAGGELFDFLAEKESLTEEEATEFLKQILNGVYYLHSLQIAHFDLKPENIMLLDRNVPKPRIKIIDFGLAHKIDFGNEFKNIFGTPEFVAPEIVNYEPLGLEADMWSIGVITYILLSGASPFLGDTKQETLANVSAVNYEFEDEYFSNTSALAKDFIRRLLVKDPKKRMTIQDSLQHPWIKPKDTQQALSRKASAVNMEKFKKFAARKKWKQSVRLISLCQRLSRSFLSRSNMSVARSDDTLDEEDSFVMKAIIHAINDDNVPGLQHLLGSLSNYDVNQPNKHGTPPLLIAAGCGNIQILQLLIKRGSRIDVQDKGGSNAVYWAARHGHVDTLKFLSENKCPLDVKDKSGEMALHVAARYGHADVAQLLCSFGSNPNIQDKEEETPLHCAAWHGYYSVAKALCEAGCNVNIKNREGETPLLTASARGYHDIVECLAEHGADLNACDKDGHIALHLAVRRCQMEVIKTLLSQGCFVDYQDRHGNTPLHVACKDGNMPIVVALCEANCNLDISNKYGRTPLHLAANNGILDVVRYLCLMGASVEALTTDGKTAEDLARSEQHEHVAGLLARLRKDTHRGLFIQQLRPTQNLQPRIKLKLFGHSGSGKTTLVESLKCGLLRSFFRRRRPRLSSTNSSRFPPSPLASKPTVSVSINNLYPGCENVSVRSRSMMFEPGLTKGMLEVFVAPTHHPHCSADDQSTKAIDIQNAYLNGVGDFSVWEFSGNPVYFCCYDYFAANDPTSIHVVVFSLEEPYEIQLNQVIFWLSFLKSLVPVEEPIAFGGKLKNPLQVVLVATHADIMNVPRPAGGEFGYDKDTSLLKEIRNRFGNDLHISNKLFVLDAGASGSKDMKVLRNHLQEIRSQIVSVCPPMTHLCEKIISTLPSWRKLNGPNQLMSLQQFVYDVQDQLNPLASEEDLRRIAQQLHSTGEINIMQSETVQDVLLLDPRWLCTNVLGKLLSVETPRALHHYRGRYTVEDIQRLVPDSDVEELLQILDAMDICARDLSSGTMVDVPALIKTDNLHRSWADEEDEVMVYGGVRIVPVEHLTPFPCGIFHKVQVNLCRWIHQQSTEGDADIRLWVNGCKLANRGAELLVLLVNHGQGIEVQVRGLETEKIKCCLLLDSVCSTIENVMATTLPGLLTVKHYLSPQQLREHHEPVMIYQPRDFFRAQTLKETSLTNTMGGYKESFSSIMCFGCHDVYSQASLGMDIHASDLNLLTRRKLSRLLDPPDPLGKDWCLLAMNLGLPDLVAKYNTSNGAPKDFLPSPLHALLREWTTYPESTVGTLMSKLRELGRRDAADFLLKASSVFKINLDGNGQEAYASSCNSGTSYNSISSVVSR
T3 sequence (P49674 whole entry): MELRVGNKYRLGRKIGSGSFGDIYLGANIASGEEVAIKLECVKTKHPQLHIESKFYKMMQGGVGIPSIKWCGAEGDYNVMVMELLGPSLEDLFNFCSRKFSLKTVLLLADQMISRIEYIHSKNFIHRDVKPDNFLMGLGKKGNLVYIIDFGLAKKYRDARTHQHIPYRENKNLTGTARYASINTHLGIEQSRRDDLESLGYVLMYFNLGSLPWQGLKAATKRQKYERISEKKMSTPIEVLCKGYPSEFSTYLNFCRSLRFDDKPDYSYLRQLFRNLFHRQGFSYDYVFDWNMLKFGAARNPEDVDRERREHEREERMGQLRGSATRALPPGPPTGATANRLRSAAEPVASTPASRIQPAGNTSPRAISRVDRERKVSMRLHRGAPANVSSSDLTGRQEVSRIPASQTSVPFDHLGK

Structure (SMILES): COc1cc(C(=O)N2CCC(N3CCN(C)CC3)CC2)ccc1Nc1ncc2c(n1)N(C)c1ccccc1C(=O)N2C [15 (LRRK2-IN-1)]
- KINOMEscan: GRK7 [1]: 100
- KINOMEscan: DAPK1 [2]: 73
- KINOMEscan: CSNK1E [3]: 95

Structure (SMILES): COc1cc(C(=O)N2CCC(N3CCN(C)CC3)CC2)ccc1Nc1ncc2c(n1)N1CCc3cccc(c31)C(=O)N2C [Compound 24]
- KINOMEscan: DAPK1 [2]: 19
- KINOMEscan: CSNK1E [3]: 81

Structure (SMILES): COc1cc(C(=O)N2CCC(N3CCN(C)CC3)CC2)ccc1Nc1ncc2c(n1)N(C1CCCC1)c1ccccc1C(=O)N2C [Compound 25, 11-cyclopentyl-2-((2-methoxy-4-(4-(4-methylpiperazin-1-yl)piperidine-1-carbonyl)phenyl)amino)-5-methyl-5H-benzo[e]pyrimido[5,4-b][1,4]diazepin-6(11H)-one]
- KINOMEscan: GRK7 [1]: 94
- KINOMEscan: DAPK1 [2]: 77
- KINOMEscan: CSNK1E [3]: 100

Structure (SMILES): CCOc1cc(C(=O)N2CCC(N3CCN(C)CC3)CC2)ccc1Nc1ncc2c(n1)N(C1CCCC1)c1ccccc1C(=O)N2C [Compound 26]
- KINOMEscan: GRK7 [1]: 100
- KINOMEscan: DAPK1 [2]: 100
- KINOMEscan: CSNK1E [3]: 100
